# US20150133426A1, “SUBSTITUTED PYRROLOPYRIMIDINES” (BAYER PHARMA AKTIENGESELLSCHAFT, priority 2012, published 2015)
# Biological target: T1, human full-length MKNK1 (Homo sapiens, UniProt Q9BUB5, T385D)
# T1 construct: purchased Carna Biosciences 02-145; host or cells: insect cells, baculovirus expression system
# Test: MKNK1 kinase high ATP assay (TR-FRET)
# Type: biochemical
# Conditions: high ATP (2 mM), 15 min preincubation with enzyme, GST-MKNK1 (T344D)
# Protocol: MKNK1-inhibitory activity at high ATP of compounds of the present invention after their preincubation with MKNK1 was quantified employing the TR-FRET-based MKNK1 high ATP assay as described in the following paragraphs.
# A recombinant fusion protein of Glutathione-S-Transferase (GST, N-terminally) and human full-length MKNK1 (amino acids 1-424 and T344D of accession number BAA 19885.1), expressed in insect cells using baculovirus expression system and purified via glutathione sepharose affinity chromatography, was purchased from Carna Biosciences (product no 02-145) and used as enzyme. As substrate for the kinase reaction the biotinylated peptide biotin-Ahx-IKKRKLTRRKSLKG (C-terminus in amide form) was used, which can be purchased e.g. from the company Biosyntan (Berlin-Buch, Germany).
# For the assay 50 nL of a 100fold concentrated solution of the test compound in DMSO was pipetted into a black low volume 384well microtiter plate (Greiner Bio-One, Frickenhausen, Germany), 2 μL of a solution of MKNK1 in aqueous assay buffer [50 mM HEPES pH 7.5, 5 mM MgCl2, 1.0 mM dithiothreitol, 0.005% (v/v) Nonidet-P40 (Sigma)] was added and the mixture was incubated for 15 min at 22° C. to allow pre-binding of the test compounds to the enzyme before the start of the kinase reaction. Then the kinase reaction was started by the addition of 3 μL of a solution of adenosine-tri-phosphate (ATP, 3.3 mM=>final conc. in the 5 μL assay volume is 2 mM) and substrate (0.1 μM=>final conc. in the 5 μL assay volume is 0.06 μM) in assay buffer and the resulting mixture was incubated for a reaction time of 30 min at 22° C. The concentration of MKNK1 was adjusted depending of the activity of the enzyme lot and was chosen appropriate to have the assay in the linear range, typical concentrations were in the range of 0.003 μg/mL. The reaction was stopped by the addition of 5 μL of a solution of TR-FRET detection reagents (5 nM streptavidine-XL665 [Cisbio Bioassays, Codolet, France] and 1 nM anti-ribosomal protein […] (pSer236)-antibody from Invitrogen [#44921G] and 1 nM LANCE EU-W1024 labeled ProteinG [Perkin-Elmer, product no. AD0071]) in an aqueous EDTA-solution (100 mM EDTA, 0.1% (w/v) bovine serum albumin in 50 mM HEPES pH 7.5).
# The resulting mixture was incubated for 1 h at 22° C. to allow the formation of complex between the phosphorylated biotinylated peptide and the detection reagents. Subsequently the amount of phosphorylated substrate was evaluated by measurement of the resonance energy transfer from the Eu-chelate to the streptavidine-XL. Therefore, the fluorescence emissions at 620 nm and 665 nm after excitation at 350 nm were measured in a TR-FRET reader, e.g. a Rubystar (BMG Labtechnologies, Offenburg, Germany) or a Viewlux (Perkin-Elmer). The ratio of the emissions at 665 nm and at […] was taken as the measure for the amount of phosphorylated substrate. The data were normalised (enzyme reaction without inhibitor=0% inhibition, all other assay components but no enzyme=100% inhibition).
# T1 sequence (Q9BUB5 1-424 isoform Q9BUB5-2 T344D): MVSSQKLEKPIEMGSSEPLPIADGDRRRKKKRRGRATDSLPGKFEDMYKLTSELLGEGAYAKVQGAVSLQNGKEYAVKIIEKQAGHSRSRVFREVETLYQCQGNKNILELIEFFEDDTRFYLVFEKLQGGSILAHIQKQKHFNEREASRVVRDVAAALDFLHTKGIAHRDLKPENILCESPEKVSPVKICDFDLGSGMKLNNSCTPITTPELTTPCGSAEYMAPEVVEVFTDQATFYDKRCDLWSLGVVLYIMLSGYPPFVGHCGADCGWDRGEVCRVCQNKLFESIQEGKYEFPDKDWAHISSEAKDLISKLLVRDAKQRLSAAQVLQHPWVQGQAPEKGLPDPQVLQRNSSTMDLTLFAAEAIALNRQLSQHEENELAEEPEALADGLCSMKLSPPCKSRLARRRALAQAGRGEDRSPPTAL
row,Structure (SMILES),IC50 [nM]
1,Clc1ccc2c(c1)CCN2c1ncnc2[nH]c3c(c12)CCCC3 [Example 122],4290
2,"Cc1cc(=O)oc2cc(Nc3ncnc4[nH]c5c(c34)CC(C(=O)NCCCS(C)(=O)=O)CC5)ccc12 (racemic) [Example 33, (RS)-4-[(4-Methyl-2-oxo-2H-chromen-7-yl)amino]-N-[3-(methylsulfonyl)propyl]-6,7,8,9-tetrahydro-5H-pyrimido[4,5-b]indole-6-carboxamide]",394
3,"CS(=O)(=O)CCCNC(=O)C1CCc2[nH]c3ncnc(Nc4cc(OC(F)(F)F)ccc4F)c3c2C1 (racemic) [Example 62, (RS)-4-{[2-Fluoro-5-(trifluoromethoxy)phenyl]amino}-N-[3-(methylsulfonyl)propyl]-6,7,8,9-tetrahydro-5H-pyrimido[4,5-b]indole-6-carboxamide]",677
4,"CS(=O)(=O)CCCNC(=O)C1CCc2[nH]c3ncnc(Nc4ccc5c(c4)C(=O)OC5)c3c2C1 (racemic) [Example 46, (RS)—N-[3-(Methylsulfonyl)propyl]-4-[(3-oxo-1,3-dihydro-2-benzofuran-5-yl)amino]-6,7,8,9-tetrahydro-5H-pyrimido[4,5-b]indole-6-carboxamide]",2240
5,"CC(C)NC(=O)C1CCc2[nH]c3ncnc(Nc4ccccc4N4CCOCC4)c3c2C1 (racemic) [Example 202, (RS)-4-{[2-(Morpholin-4-yl)phenyl]amino}-N-(propan-2-yl)-6,7,8,9-tetrahydro-5H-pyrimido[4,5-b]indole-6-carboxamide]",267
6,"CC(C)Oc1ccc(Nc2ncnc3[nH]c4c(c23)CC(C(=O)NCCCS(C)(=O)=O)CC4)cc1 (racemic) [Example 35, (RS)—N-[3-(Methylsulfonyl)propyl]-4-{[4-(propan-2-yloxy)phenyl]amino}-6,7,8,9-tetrahydro-5H-pyrimido[4,5-b]indole-6-carboxamide]",9660
7,"O=S1(=O)CCc2[nH]c3ncnc(Nc4ccc5[nH]ncc5c4)c3c2C1 [Example 83, N-(1H-Indazol-5-yl)-5,7,8,9-tetrahydrothiopyrano[3′,4′:4,5]pyrrolo[2,3-d]pyrimidin-4-amine 6,6-dioxide]",62
8,"COc1ccc(F)cc1Nc1ncnc2[nH]c3c(c12)CC(C(=O)NCc1ccccc1)CC3 (racemic) [Example 200, (RS)—N-Benzyl-4-[(5-fluoro-2-methoxyphenyl)amino]-6,7,8,9-tetrahydro-5H-pyrimido[4,5-b]indole-6-carboxamide]",100
9,"CS(=O)(=O)CCCNC(=O)C1CCc2[nH]c3ncnc(Nc4cccc(-n5cnnn5)c4)c3c2C1 (racemic) [Example 47, (RS)—N-[3-(Methylsulfonyl)propyl]-4-{[3-(1H-tetrazol-1-yl)phenyl]amino}-6,7,8,9-tetrahydro-5H-pyrimido[4,5-b]indole-6-carboxamide]",1310
10,"CS(=O)(=O)CCCNC(=O)C1CCc2[nH]c3ncnc(Nc4ccc5ncsc5c4)c3c2C1 (racemic) [Example 49, (RS)-4-(1,3-Benzothiazol-6-ylamino)-N-[3-(methylsulfonyl)propyl]-6,7,8,9-tetrahydro-5H-pyrimido[4,5-b]indole-6-carboxamide]",231
11,"CS(=O)(=O)CCCNC(=O)C1CCc2[nH]c3ncnc(Nc4cccc5c4CCCC5)c3c2C1 (racemic) [Example 58, (RS)—N-[3-(Methylsulfonyl)propyl]-4-(5,6,7,8-tetrahydronaphthalen-1-ylamino)-6,7,8,9-tetrahydro-5H-pyrimido[4,5-b]indole-6-carboxamide]",1170
12,"O=C(O)C1CCc2[nH]c3ncnc(Nc4ccc5[nH]ncc5c4)c3c2C1 (racemic) [Example 6, (RS)-4-(1H-Indazol-5-ylamino)-6,7,8,9-tetrahydro-5H-pyrimido[4,5-b]indole-6-carboxylic acid]",89
13,"CS(=O)(=O)CCCNC(=O)C1CCc2[nH]c3ncnc(Nc4cccc5c4CNC5=O)c3c2C1 (racemic) [Example 81, (RS)—N-[3-(Methylsulfonyl)propyl]-4-[(1-oxo-2,3-dihydro-1H-isoindol-4-yl)amino]-6,7,8,9-tetrahydro-5H-pyrimido[4,5-b]indole-6-carboxamide]",1270
14,"COc1ccc(N(C)C)cc1Nc1ncnc2[nH]c3c(c12)CC(C(=O)NCCCS(C)(=O)=O)CC3 (racemic) [Example 158, (RS)-4-{[5-(Dimethylamino)-2-methoxyphenyl]amino}-N-[3-(methylsulfonyl)propyl]-6,7,8,9-tetrahydro-5H-pyrimido[4,5-b]indole-6-carboxamide]",≥ 20000
15,"CC(C)NC(=O)C1CCc2[nH]c3ncnc(Nc4cc(Cl)ccc4OC(C)C)c3c2C1 (racemic) [Example 225, (RS)-4-{[5-Chloro-2-(propan-2-yloxy)phenyl]amino}-N-(propan-2-yl)-6,7,8,9-tetrahydro-5H-pyrimido[4,5-b]indole-6-carboxamide]",1040
16,"CCOC(=O)C1CCc2[nH]c3ncnc(Nc4cc(Cl)ccc4OC(C)C)c3c2C1 (racemic) [Example 177, (RS)-Ethyl 4-{[5-chloro-2-(propan-2-yloxy)phenyl]amino}-6,7,8,9-tetrahydro-5H-pyrimido[4,5-b]indole-6-carboxylate]",17000

# Now those with a lower IC50, led by results:
row,IC50 [nM],Structure (SMILES)
1,58,O=c1[nH]c2ccc(Nc3ncnc4[nH]c5c(c34)CCCC5)cc2s1 [Example 117]
2,46,"O=C(C1CCc2[nH]c3ncnc(Nc4ccc5[nH]ncc5c4)c3c2C1)N1CC(F)(F)C1 (racemic) [Example 17, (RS)-(3,3-Difluoroazetidin-1-yl)[4-(1H-indazol-5-ylamino)-6,7,8,9-tetrahydro-5H-pyrimido[4,5-b]indol-6-yl]methanone]"
3,37,"CCCOc1ccc(F)cc1Nc1ncnc2[nH]c3c(c12)CC(C(=O)NCCCS(C)(=O)=O)CC3 (racemic) [Example 160, (RS)-4-[(5-Fluoro-2-propoxyphenyl)amino]-N-[3-(methylsulfonyl)propyl]-6,7,8,9-tetrahydro-5H-pyrimido[4,5-b]indole-6-carboxamide]"
4,35,"COc1cc(F)c(F)cc1Nc1ncnc2[nH]c3c(c12)CC(C(=O)NCCCS(C)(=O)=O)CC3 (racemic) [Example 161, (RS)-4-[(4,5-Difluoro-2-methoxyphenyl)amino]-N-[3-(methylsulfonyl)propyl]-6,7,8,9-tetrahydro-5H-pyrimido[4,5-b]indole-6-carboxamide]"
5,24,"COc1cc(Cl)c(Cl)cc1Nc1ncnc2[nH]c3c(c12)CC(C(=O)O)CC3 (racemic) [Example 18, (RS)-4-[(4,5-Dichloro-2-methoxyphenyl)amino]-6,7,8,9-tetrahydro-5H-pyrimido[4,5-b]indole-6-carboxylic acid]"
6,10,"COc1ccc(Cl)cc1Nc1ncnc2[nH]c3c(c12)CC(C(=O)NCCCS(C)(=O)=O)CC3 (racemic) [Example 149, (RS)-4-[(5-Chloro-2-methoxyphenyl)amino]-N-[3-(methylsulfonyl)propyl]-6,7,8,9-tetrahydro-5H-pyrimido[4,5-b]indole-6-carboxamide]"
7,6,COc1cc2[nH]ncc2cc1Nc1ncnc2[nH]c3c(c12)CC(F)(F)CC3 [Example 141]
8,3,"COc1cc2[nH]ncc2cc1Nc1ncnc2[nH]c3c(c12)CC(C(=O)NCc1cccc(C(F)(F)F)c1)CC3 (racemic) [Example 220, (RS)-4-[(6-Methoxy-1H-indazol-5-yl)amino]-N-[3-(trifluoromethyl)benzyl]-6,7,8,9-tetrahydro-5H-pyrimido[4,5-b]indole-6-carboxamide]"
9,1,"COc1cc2[nH]ncc2cc1Nc1ncnc2[nH]c3c(c12)CC(C(=O)NCc1ccccc1)CC3 (racemic) [Example 219, (RS)—N-Benzyl-4-[(6-methoxy-1H-indazol-5-yl)amino]-6,7,8,9-tetrahydro-5H-pyrimido[4,5-b]indole-6-carboxamide]"
10,1,"CC(C)Oc1cc2[nH]ncc2cc1Nc1ncnc2[nH]c3c(c12)CC(C(=O)NCCCS(C)(=O)=O)CC3 (racemic) [Example 230, (RS)—N-[3-(Methylsulfonyl)propyl]-4-{[6-(propan-2-yloxy)-1H-indazol-5-yl]amino}-6,7,8,9-tetrahydro-5H-pyrimido[4,5-b]indole-6-carboxamide]"
